We go through six compounds from ChEMBL document CHEMBL1129313, “Oxidation chemistry of (-)-norepinephrine in the presence of L-cysteine” (J Med Chem, 1996).

Data set [1] concerns Mus musculus. Kind of data set: In vivo toxic dose of injected compound at a dose of 5 to 100 ug at which 50% of mice died within 1 hr of treatment. Format: ADME, organism-based.
The subject of data set [2] is Mus musculus. Nature of the data set: In vivo behavioral response evoked when a dose of 100 microg injected into mice under light ether anesthesia; No response. Format: functional, organism-based.
Data set [3] deals with Mus musculus. Kind of data set: In vivo toxic dose of injected compound at a dose of 10 to 100 ug at which 50% of mice died within 1 hr of treatment. It is filed as ADME, organism-based.

Activity calls are given as the source filed them. The calls are words filed in the database; no cut-off is given here.

Turning to `NCC(O)c1cc(O)c2c(c1)SCC(C(=O)O)N2` (stereo unspecified), the LD50 in data set [1] is 17.8 µg. As to `NCC(O)c1cc(SCC(N)C(=O)O)c(O)c(O)c1SCC(N)C(=O)O` (stereo unspecified), the result in data set [2] was inactive.

Regarding `NCC(O)c1cc(O)c(O)c(SCC(N)C(=O)O)c1` (stereo unspecified), the outcome in data set [2] was inactive. Consider `NCC(O)c1ccc(O)c2c1SCC(C(=O)O)N2` (stereo unspecified), for which the LD50 in data set [3] was found to be 23.4 µg. In the case of `NCC(O)c1cc(SCC(N)C(=O)O)c(O)c2c1SCC(C(=O)O)N2` (stereo unspecified), in data set [2], the outcome was inactive.

Consider `NCC(O)c1c2c(c(O)c(SCC(N)C(=O)O)c1SCC(N)C(=O)O)NC(C(=O)O)CS2` (stereo unspecified), for which the outcome in data set [2] was inactive.
